# Assay results: US8450318B2 (priority 2007, dated 2013)
# Like-named read-outs stand apart in the source and are kept apart here.
# Assays:
# Sindbis virus = test: Antiviral activity, Sindbis virus; format: cell-based; conditions: Sindbis virus; Table 3, reference compounds
# Reovirus-1 = test: Antiviral activity, Reovirus-1; format: cell-based; conditions: Table 3, reference compounds
# Para-influenza-3 virus = test: Antiviral activity, Para-influenza-3 virus; format: cell-based; conditions: Table 3, reference compounds
# Coxsackie virus B4 = test: microbe, parasite or virus in culture; format: cell-based; conditions: Enterovirus B, B4; Table 3, reference compounds
# Vaccinia virus = test: microbe, parasite or virus in culture; format: cell-based; conditions: Orthopoxvirus vaccinia, read-out: EC50 Vaccinia virus
# [1] = test system: Herpes simples virus-2 (G); test: Antiviral activity, Herpes simplex virus-2 (G); format: cell-based; conditions: Human alphaherpesvirus 2; Table 4, reference compounds
# [2] = test system: Herpes simplex virus-1 TK KOS-ACV^r; test: Antiviral activity, Herpes simplex virus-1 TK KOS-ACVr; format: cell-based; conditions: Human alphaherpesvirus 1, read-out: EC50 Herpes simplex virus-1 TK KOS-ACV^r
# [3] = test system: Vesicular stomatitis virus; test: microbe, parasite or virus in culture; format: cell-based; conditions: read-out: EC50 Vesicular stomatitis virus
# Punta Toro virus = test: Antiviral activity, Punta Toro virus; format: cell-based; conditions: Punta Toro virus; Table 3, reference compounds
# [4] = test system: Herpes simplex virus-1 (KOS); test: Antiviral activity, Herpes simplex virus-1 (KOS); format: cell-based; conditions: Human alphaherpesvirus 1; Table 4, reference compounds
# [5] = test system: human corona (SARS) virus; test: microbe, parasite or virus in culture; format: cell-based; conditions: Severe acute respiratory syndrome coronavirus, read-out: Human Corona virus EC50
# in vitro = conditions: human, CEM cells
# HIV-1 = test: microbe, parasite or virus in culture; conditions: Human immunodeficiency virus 1, CCRF-CEM, read-out: EC50 HIV-1
# Feline Corona virus = test: Activity on feline corona virus in CRFK cells; format: cell-based
# HIV-2 = test: Antiretrovirus assay, HIV-2; conditions: Human immunodeficiency virus 2, read-out: EC50 HIV-2
# Influenza A H1N1 subtype = test: Anti-influenza activity in MDCK cells, Influenza A H1N1; format: cell-based; conditions: Influenza A virus, reference compounds
# Text: (§1) MDCK cells (Madin Darby canine kidney cells) have been used for the experiments shown in table 5 using standard procedures known in the art.
# Influenza A H3N2 subtype = test: Anti-influenza activity in MDCK cells, Influenza A H3N2; format: cell-based; conditions: Influenza A virus, reference compounds
# Text: as §1
SMILES,EC50 (Sindbis virus) [µM],EC50 (Reovirus-1) [µM],EC50 (Para-influenza-3 virus) [µM],EC50 (Coxsackie virus B4) [µM],EC50 (Vaccinia virus) [µM],EC50 [1] [µM],EC50 [2] [µM],EC50 [3] [µM],EC50 (Punta Toro virus) [µM],EC50 [4] [µM],EC50 [5] [µg/mL],CC50 (in vitro) [µg/mL],EC50 (HIV-1) [µg/mL],melting point [°C],EC50 (Feline Corona virus) [µg/mL],EC50 (HIV-2) [µg/mL],"EC50 (Influenza A H1N1 subtype; H1N1, MTS, read-out: EC50 Influenza A H1N1 subtype MTS) [µM]","EC50 (Influenza A H1N1 subtype; H1N1, visual CPE, read-out: EC50 Influenza A H1N1 subtype visual CPE score) [µM]","EC50 (Influenza A H3N2 subtype; H3N2, MTS, read-out: EC50 Influenza A H3N2 subtype MTS) [µM]","EC50 (Influenza A H3N2 subtype; H3N2, visual CPE, read-out: EC50 Influenza A H3N2 subtype visual CPE score) [µM]"
O=c1[nH]c(=O)n([C@H]2C[C@H](O)[C@@H](CO)O2)cc1/C=C/Br [Brivudin],> 250,> 250,> 250,> 250,2,10,50,> 250,> 250,0.016,,,,,,,,,,
"CCc1c(CNc2cc(C)cc(C)n2)c(CC)c(CNc2cc(C)cc(C)n2)c(CC)c1CNc1cc(C)cc(C)n1 [Compound 3b, 1,3,5-Tris[(4,6-dimethyl-pyridin-2-yl)aminomethyl]-2,4,6-triethyl-benzene]",,,,,,,,,,,8.6 ± 4.9,2.87 ± 0.23,> 0.8,183 to 185,1.1 ± 0.6,> 0.8,,,,
NC(=O)c1ncn([C@@H]2O[C@H](CO)[C@@H](O)[C@H]2O)n1 [Ribavirin],250,150,250,> 250,150,150,150,> 250,150,50,,,,,,,9,8.9,8.9,8.9
